# Measurements: PubChem BioAssay AID1845207 (Molecular Pharmacology Branch, DTP, NCI, 2023)
# Values joined by “and” are separate entries in the source; they are usually repeats but may differ in a detail not shown here. Equal entries are not always repeated.
# Tested on: NCI-H1876 tumor spheroid viability
# Test: Anticancer human tumor NCI-H1876 cell line growth inhibition;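 note: spheroids exposed to compounds for seven days before the viability read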;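 for viability, T/C: percent of DMSO vehicle control viability so 100% = vehicle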
# Settings: spheroids with HUVEC and MSC; for viability, T/C: stronger effect = lower value
# How it was run: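 Complex spheroids of malignant cells with endothelial cells and mesenchymal stem cells; agents alone or combined, from near clinical Cmax (or 10 microM if unknown) down in half-log steps, 0.25% DMSO final.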
# [1] = curve of first compound, second compound 1 µM
# [2] = curve of first compound, second compound 3.16 µM
# [3] = curve of first compound, second compound 10 µM
# [4] = curve of first compound, second compound 31.6 µM
# [5] = curve of first compound, second compound 100 µM
compound,measurement,setting,value
CNCc1ccc(-c2cc(-c3nc(-c4ccc(S(=O)(=O)C(C)C)cc4)cnc3N)on2)cc1 + Cn1nnc2c(C(N)=O)ncn2c1=O,IC50,[1],0.121 µM
same,IC50,[2],0.0837 µM
same,IC50,[3],0.0923 µM
same,IC50,[4],0.0893 µM
same,IC50,[5],< 0.00949 µM
same,"viability, T/C","second compound 1 µM, first compound 0.00949 µM",82%
same,"viability, T/C","second compound 1 µM, first compound 0.03 µM",70.7%
same,"viability, T/C","second compound 1 µM, first compound 0.0949 µM",54.9%
same,"viability, T/C","second compound 1 µM, first compound 0.3 µM",33.6%
same,"viability, T/C","second compound 1 µM, first compound 0.949 µM",12.6%
same,"viability, T/C","second compound 1 µM, first compound 3 µM",0.35%
same,"viability, T/C","second compound 3.16 µM, first compound 0.00949 µM",95.4%
same,"viability, T/C","second compound 3.16 µM, first compound 0.03 µM",54.9%
same,"viability, T/C","second compound 3.16 µM, first compound 0.0949 µM",55.4%
same,"viability, T/C","second compound 3.16 µM, first compound 0.3 µM",29.7%
same,"viability, T/C","second compound 3.16 µM, first compound 0.949 µM",15.2%
same,"viability, T/C","second compound 3.16 µM, first compound 3 µM",0.44%
same,"viability, T/C","second compound 10 µM, first compound 0.00949 µM",86.9%
same,"viability, T/C","second compound 10 µM, first compound 0.03 µM",65.2%
same,"viability, T/C","second compound 10 µM, first compound 0.0949 µM",54%
same,"viability, T/C","second compound 10 µM, first compound 0.3 µM",29.9%
same,"viability, T/C","second compound 10 µM, first compound 0.949 µM",13.1%
same,"viability, T/C","second compound 10 µM, first compound 3 µM",11%
same,"viability, T/C","second compound 31.6 µM, first compound 0.00949 µM",82%
same,"viability, T/C","second compound 31.6 µM, first compound 0.03 µM",57.8%
same,"viability, T/C","second compound 31.6 µM, first compound 0.0949 µM",58.2%
same,"viability, T/C","second compound 31.6 µM, first compound 0.3 µM",30.1%
same,"viability, T/C","second compound 31.6 µM, first compound 0.949 µM",51.8%
same,"viability, T/C","second compound 31.6 µM, first compound 3 µM",45.7%
same,"viability, T/C","second compound 100 µM, first compound 0.00949 µM",50.8%
same,"viability, T/C","second compound 100 µM, first compound 0.03 µM",43%
same,"viability, T/C","second compound 100 µM, first compound 0.0949 µM",36.5%
same,"viability, T/C","second compound 100 µM, first compound 0.3 µM",20.9%
same,"viability, T/C","second compound 100 µM, first compound 0.949 µM",47.9%
same,"viability, T/C","second compound 100 µM, first compound 3 µM",0.26%
CC(C)n1c(=O)n(C)c2cnc3cc(F)c(-c4ccc(OCCCN5CCCCC5)nc4)cc3c21 + Cn1nnc2c(C(N)=O)ncn2c1=O,IC50,[1],0.411 µM
same,IC50,[2],0.517 µM
same,IC50,[3],0.571 µM
same,IC50,[4],0.623 µM
same,IC50,[5],0.176 µM
same,"viability, T/C","second compound 1 µM, first compound 0.0316 µM",87%
same,"viability, T/C","second compound 1 µM, first compound 0.1 µM",68.1%
same,"viability, T/C","second compound 1 µM, first compound 0.316 µM",51.6%
same,"viability, T/C","second compound 1 µM, first compound 1 µM",39.2%
same,"viability, T/C","second compound 1 µM, first compound 3.16 µM",27.7%
same,"viability, T/C","second compound 1 µM, first compound 10 µM",12.1%
same,"viability, T/C","second compound 3.16 µM, first compound 0.0316 µM",88.9%
same,"viability, T/C","second compound 3.16 µM, first compound 0.1 µM",70.7%
same,"viability, T/C","second compound 3.16 µM, first compound 0.316 µM",54.7%
same,"viability, T/C","second compound 3.16 µM, first compound 1 µM",42.6%
same,"viability, T/C","second compound 3.16 µM, first compound 3.16 µM",29.6%
same,"viability, T/C","second compound 3.16 µM, first compound 10 µM",12.8%
same,"viability, T/C","second compound 10 µM, first compound 0.0316 µM",85.5%
same,"viability, T/C","second compound 10 µM, first compound 0.1 µM",68.6%
same,"viability, T/C","second compound 10 µM, first compound 0.316 µM",55.4%
same,"viability, T/C","second compound 10 µM, first compound 1 µM",41.6%
same,"viability, T/C","second compound 10 µM, first compound 3.16 µM",36.1%
same,"viability, T/C","second compound 10 µM, first compound 10 µM",11.4%
same,"viability, T/C","second compound 31.6 µM, first compound 0.0316 µM",84.8%
same,"viability, T/C","second compound 31.6 µM, first compound 0.1 µM",72.5%
same,"viability, T/C","second compound 31.6 µM, first compound 0.316 µM",58.7%
same,"viability, T/C","second compound 31.6 µM, first compound 1 µM",42.8%
same,"viability, T/C","second compound 31.6 µM, first compound 3.16 µM",29.7%
same,"viability, T/C","second compound 31.6 µM, first compound 10 µM",12.8%
same,"viability, T/C","second compound 100 µM, first compound 0.0316 µM",62.4%
same,"viability, T/C","second compound 100 µM, first compound 0.1 µM",55.2%
same,"viability, T/C","second compound 100 µM, first compound 0.316 µM",43.2%
same,"viability, T/C","second compound 100 µM, first compound 1 µM",35.3%
same,"viability, T/C","second compound 100 µM, first compound 3.16 µM",25.9%
same,"viability, T/C","second compound 100 µM, first compound 10 µM",10.2%
Cc1sc2c(c1C)C(c1ccc(Cl)cc1)=NC(CC(=O)Nc1ccc(O)cc1)c1nnc(C)n1-2 (configuration not stated),"viability, T/C",compound 0.00949 µM,94.3% and 86.8% and 105%
same,"viability, T/C",compound 0.03 µM,71.5% and 70.6% and 109%
same,"viability, T/C",compound 0.0949 µM,51.4% and 53% and 109%
same,"viability, T/C",compound 0.3 µM,33.7% and 35.1% and 81.6%
same,"viability, T/C",compound 0.949 µM,17% and 16% and 39.7%
same,"viability, T/C",compound 3 µM,12.9% and 9.5% and 12.3%
same,IC50,curve of compound,0.0988 µM and 0.112 µM and 0.709 µM
